# Test results as given in article PMC3964211, “Pharmacokinetic modeling optimizes inhibition of the ‘undruggable’ EWS-FLI1 transcription factor in Ewing Sarcoma” (Oncotarget, 2013).
# Experiments:
# A4573 xenograft = assay: Orthotopic mouse xenograft model, A4573, IP dosing; format: in vivo, SCID/bg mice; settings: for Tumor histology (hematoxylin and eosin): A4573 tumors, two hours following the 6th dose; for Tumor histology (hematoxylin and eosin) / Regression of tumor volume over 3 days: BID IP 400 mg/kg; for Regression of tumor volume over 3 days: A4573 xenograft, 3-day, six-dose
# Procedure: (§1) A series of models that combined results from in vitro colony assays and in vivo PK data were developed to evaluate several potential dosing schemes for the mice (Supplementary Figures 1A-E). We selected an IP dosing strategy (twice daily (BID) injections of […] racemic mixture) that would maintain a 3 ¼M plasma levels for greater than 72 hours in the mice (Figure 3A). With this IP dosing regimen, xenograft growth of A4573 was 70% less in the YK-4-279 treatment group compared to vehicle control (Figure 3B, p=0.04). […] To confrm the impact of YK-4-279 treatment on xenograft growth, mice with SK-ES xenografts were treated with racemic, (S), or (R)-YK-4-279 until control tumors reached 1 cm^3. Xenograft growth was reduced for those mice receiving both racemic and (S)-YK-4-279 over the control (Figure 3D, p=0.02 and p=0.003, respectively). […] Tumors were analyzed for drug levels of racemic, (R)-, and (S)-YK-4-279. Three of four mice treated with racemic compound had tumor levels of (S)-YK-4-279 that ranged from ~12-35 ¼g eq/g, which correlated with tumor growth ratios of less than 1.0, indicating response to the drug (Figure 3F). Those animals treated with the active (S)-YK-4-279 levels had tumor levels that were below 10 ¼g eq/g (Figure 3F). Tumor levels of (R)-YK-4-279 are also provided (Supplementary Figure 1F).
# (§2) In order to evaluate tumors from animals treated in a similar fashion, including resection prior to central necrosis in controls, a 3-day, six-dose, experiment was executed. Treatment was initiated with racemic, (S)-, or (R)-YK-4-279 using BID IP administration at 400 mg/kg when tumors were well established at a volume of 250 to 300 mm^3. Both ES models treated with either racemic or (S)-YK-4-279 regressed by 25–30% of tumor volume over 3 days, while tumors grew in control and (R)-YK-4-279 treated animals (Figures 4A and B). Two hours following the 6th dose, mice were euthanized for tumor analysis. […] To confirm the apoptotic cell death, sections from A4573 tumors were stained with TUNEL (Figures 4D) and there was a 3 – 4 fold increase in TUNEL-positive cells treated with (S)-YK-4-279 compared to (R)-YK-R-279 treated tumors (Figure 4E). […] Levels of each enantiomer were measured in tumor samples and (S)-YK-4-279 levels correlated with clinical regression (Supplemental Figure 2B–E).
# Two million A4573 or SK-ES Ewing's sarcoma cells in 0.1 mL were injected into an orthotopic paraosseous location, adjacent to the left proximal tibia, in 5-week-old female severe combined immunodeficient-beige (SCID/bg) mice (Harlan Laboratories, Inc., Indianapolis, IN). After primary tumors reached 250 – 300 mm^3 size, mice were randomized and received intraperitoneal injection (IP) with vehicle control (0.25% Lecithin solution or DMSO), (S)-YK-4-279, (R)-YK-4-279 or racemic YK-4-279 at a dose of 400 mg/kg twice a day (BID) for 7 days in a week. The tumor volume was determined by the formula (D × d2/6) × p, where D was the longer diameter and d was the shorter diameter. Tumor volume was monitored every day by caliper until the tumor size reaches 1cm^3. Mice were euthanized and primary tumors were collected. For the pharmacodynamics study mice were randomized and received 6 doses treatment with vehicle control (0.25% Lecithin solution or DMSO), (S)-YK-4-279, (R)-YK-4-279 or racemic YK-4-279 at a dose of 400 mg/kg twice a day (BID). Mice were euthanized after 2 hours of last 6th dosing and primary tumors were collected. […]
# SK-ES xenograft = assay: Orthotopic mouse xenograft model, SK-ES, IP dosing; format: in vivo; settings: for Regression of tumor volume over 3 days: SK-ES xenograft, 3-day, six-dose
# Procedure: as §1, §2
# Two million A4573 or SK-ES Ewing's sarcoma cells in 0.1 mL were injected into an orthotopic paraosseous location, adjacent to the left proximal tibia, in 5-week-old female severe combined immunodeficient-beige (SCID/bg) mice (Harlan Laboratories, Inc., Indianapolis, IN). After primary tumors reached 250 – 300 mm^3 size, mice were randomized and received intraperitoneal injection (IP) with vehicle control (0.25% Lecithin solution or DMSO), (S)-YK-4-279, (R)-YK-4-279 or racemic YK-4-279 at a dose of 400 mg/kg twice a day (BID) for 7 days in a week. The tumor volume was determined by the formula (D × d2/6) × p, where D was the longer diameter and d was the shorter diameter. Tumor volume was monitored every day by caliper until the tumor size reaches 1cm^3. Mice were euthanized and primary tumors were collected. For the pharmacodynamics study mice were randomized and received 6 doses treatment with vehicle control (0.25% Lecithin solution or DMSO), (S)-YK-4-279, (R)-YK-4-279 or racemic YK-4-279 at a dose of 400 mg/kg twice a day (BID). Mice were euthanized after 2 hours of last 6th dosing and primary tumors were collected. Animal studies were approved by an Institutional Animal Care and Use Committee of the Georgetown University.
# The plasma and tumor sample analysis was performed using calibration standards and Quality Control (QC) samples prepared in control rat or mouse plasma and tumor tissues. Plasma and tumor calibration standards were prepared from stock solutions of YK-4-279. […]
Structure (SMILES),Tumor histology (hematoxylin and eosin) (A4573 xenograft),Regression of tumor volume over 3 days (A4573 xenograft),Regression of tumor volume over 3 days (SK-ES xenograft; BID IP 400 mg/kg),"Xenograft growth less than vehicle control (A4573 xenograft; A4573 xenograft mice, BID IP racemic mixture (375 mg/kg in text, 400 mg/kg in Figure 3 legend), p=0.04)","Overall survival (SK-ES xenograft; SK-ES xenograft mice, BID IP 400 mg/kg, p=0.013 vs control)","Xenograft growth less than control group (SK-ES xenograft; SK-ES xenograft mice, BID IP racemic mixture (375 mg/kg in text, 400 mg/kg in Figure 3 legend), p=0.02)","Xenograft growth over the control (SK-ES xenograft; SK-ES xenografts, BID IP 400 mg/kg until control tumors reached 1 cm^3)","Tumor growth ratios (SK-ES xenograft; SK-ES xenografts, three of four mice treated with racemic compound)"
COc1ccc(C(=O)C[C@]2(O)C(=O)Nc3c(Cl)ccc(Cl)c32)cc1 [(R)-YK-4-279],"healthy tumor cells, but fewer mitotic figures than the DMSO control",tumors grew,tumors grew,,,,,
COc1ccc(C(=O)CC2(O)C(=O)Nc3c(Cl)ccc(Cl)c32)cc1 (centres unmarked) [YK-4-279],vacuolar cell death and nuclear fragmentation consistent with apoptosis,25–30%,25–30%,70%,improved overall survival,70%,reduced,less than 1.0
